Data as given in patent publication US20100311756A1, “METHODS FOR DELAYING THE PROGRESSION OF AT LEAST ONE OF CARDIAC HYPERTROPHY, CARDIAC REMODELING OR LEFT VENTRICULAR FUNCTION OR THE ONSET OF HEART FAILURE IN SUBJECTS IN NEED OF TREATMENT THEREOF” (TAKEDA PHARMACEUTICALS NORTH AMERICA, INC., priority 2009, published 2010).
“Also recorded” adds a separate entry of the source. Marks after values point to notes of the source that are not given here.

Tested on: TAC mice
Experiment: Transverse aortic constriction (TAC) in mice, Protocol 1: febuxostat for 8 days beginning ~60 min after TAC
Format: in vivo
Excerpt: • Mice. Male C57/BL6 mice at 8-9 weeks of age were purchased from Jackson Laboratories (Bar Harbor, Me.) for use in this study. Mice were housed in an air-conditioned room with a 12-hour:12-hour light-dark cycle, received standard mouse chow, and drank tap water. This study was approved by the Institutional Animal Care and Use Committee of the University of Minnesota. • Experimental Protocol 1. This protocol was designed to determine whether febuxostat (2-[3-cyano-4-(2-methylpropoxy)phenyl]-4-methylthiazole-5-carboxylic acid) treatment, beginning immediately after the onset of acute pressure overload, could protect against transverse aortic constriction (TAC)-induced left ventricular (LV) hypertrophy, dysfunction and mortality. Three treatment groups were included (See Table 1, below): sham-operated mice (n=20), TAC mice treated with vehicle (0.5% methylcellulose) (n=30), and TAC mice treated with febuxostat (suspension in 0.5% methylcellulose) (n=30). To generate LV hypertrophy in a short time period with a significant incidence of cardiac mortality, TAC was created by ligating the transverse aorta against a 27 G needle to create severe LV pressure overload. Since mice tend to take in less water and food during the first 1-3 days after the TAC procedure, febuxostat (5 mg/kg/day in 250 μl vehicle) or vehicle (250 μl) was administered daily by oral gavage for a total of 8 days, with the first dose administered on the day of the surgery after the animal awoke from anesthesia (˜60 min after the TAC procedure). On the eighth day, LV function was assessed by echocardiography approximately 1 hour after the last febuxostat or vehicle dose. Approximately 3 hours after echocardiographic evaluation (4 hours after the last febuxostat or vehicle dose), the mice were weighed and blood samples collected. The animals were euthanized and the heart and lungs excised; the right and left atria were trimmed away, and the ventricles and lungs were weighed. Tissue from the left ventricle was used for histological evaluation and Western blots. • Experimental Protocol 2. This protocol was designed to determine whether administration of febuxostat (FBS) or allopurinol (AL) beginning after the onset of cardiac hypertrophy, LV dysfunction and heart failure could exert a protective effect. For this protocol, mice subjected to TAC (using a 26 gauge (G) needle to generate moderate TAC) or sham surgery were divided into six experimental groups as described in Table 1, below. Beginning seven days after TAC, animals were treated with vehicle (0.01 mg/ml NaCl, equivalent salt content as in the FBS drinking water), FBS (0.05 mg/ml) or AL (0.15 mg/ml) in drinking water for three weeks. Following three weeks of treatment, ventricular function was assessed by echocardiography. Blood samples and cardiac tissue were collected during 2-3 hours after the echocardiographic evaluation as described previously in Protocol 1.
• Minimally Invasive TAC Procedure. TAC was performed using the minimally invasive suprasternal approach described by Hu et al. (See, Hu et al., Am. J. Physiol. Heart Circ. Physiol., 3:H1261-9 (2003)). Mice were anesthetized with a mixture of 80 mg/kg ketamine and 30 mg/kg xylazine intraperitoneally. A horizontal incision was made at the level of the suprasternal notch to allow direct visualization of the transverse aorta without entering the pleural space. With the aid of a dissecting microscope, aortic constriction was performed by ligating the aorta between the right innominate artery and the left carotid artery over a 27 G) needle using 5-0 silk suture. The needle was immediately removed after ligation, leaving the aortic constriction in place. The incision was closed and the animals were allowed to recover. Analgesia was provided before the mice awoke from anesthesia. Sham surgery utilized the same procedure but without aortic ligation. • Echocardiography.

[1] = 5 mg/kg/day oral gavage for 8 days from ~60 min after TAC
[2] = 8 days, versus TAC vehicle, listed as FBS

## Cc1nc(-c2ccc(OCC(C)C)c(C#N)c2)sc1C(=O)O [febuxostat, 2-[3-cyano-4-(2-methylpropoxy)phenyl]-4-methylthiazole-5-carboxylic acid]
[1]
  Anterior wall thickness at end-diastole: 0.84 ± 0.02 mm
  Anterior wall thickness at end-systole: 1.10 ± 0.04 mm
  LV fractional shortening: 31.5 ± 2.2*^,# %
  Lung weight: 163 ± 16 mg
  Posterior wall thickness at end-diastole: 0.83 ± 0.02*^,# mm
  Posterior wall thickness at end-systole: 1.10 ± 0.03 mm
  Ventricle weight: 138 ± 7.0*^,# mg
8 days
  Cardiac myocyte diameter: 16.3±0.3 μm
  Mortality (mice died): 14 out of 30
  Myocardial fibrosis: 8.3±2. %
8 days, FIG. 1A
  TAC-induced left ventricular (LV) hypertrophy: significantly attenuated
8 days, FIG. 1B
  TAC-induced pulmonary congestion: tended to decrease
8 days, FIG. 1C
  TAC-induced cardiac sudden death / mortality (effect): not affected; also recorded: no effect
8 days, Western blot of LV
  TAC-induced increase of myocardial ANP: significantly attenuated
  TAC-induced increase of myocardial collagen III: significantly attenuated
  TAC-induced increase of myocardial nitrotyrosine: significantly blunted
  TAC-induced increase of myocardial pre-collagen I: significantly attenuated
  TAC-induced increase of p-Erk Thr202/204: significantly attenuated
  TAC-induced increase of p-mTOR Ser2488: significantly attenuated
  TAC-induced increase of t-Erk: significantly attenuated
8 days, Western blot of LV, listed as FBS
  TAC-induced increase of myocardial nitrotyrosine: significantly attenuated
8 days, versus TAC vehicle
  Decrease of pulmonary congestion (ratio of lung weight to body weight): about 18%
  LV diameter at end-diastole: no significant effect
  Plasma uric acid: significantly decreased
  Reduction of ventricular hypertrophy (ratio of ventricular mass to body weight): approximately 15%
  TAC-induced decrease of LV ejection fraction: attenuated
  TAC-induced decrease of LV fractional shortening: attenuated
  TAC-induced increase of LV diameter at end-systole: trend toward attenuating
  TAC-induced increase of LV end-diastolic wall thickness: significantly attenuated
[2]
  LV diameter at end-diastole: not changed
  TAC-induced decrease of LV ejection fraction: significantly attenuated
  TAC-induced increase of LV diameter at end-systole: trend toward attenuation
